The NIST ThermoML archive (doi:10.1021/je500305u)

Assay: mn = molality of the nth substance listed, in mol/kg
Conditions: Liquid, Vibrating tube method

NCCS(=O)(=O)[O-].[K+] [potassium taurate] + O
mass density [kg/m3]
Conditions | m1 = 0.89 | m1 = 1.6
283 K | 1084 | –
288 K | 1083 | –
293 K | 1081 | 1145
298 K | 1079 | 1143
303 K | 1078 | 1141
308 K | 1076 | 1139
313 K | 1073 | 1136
318 K | 1071 | 1134
323 K | 1069 | 1131
328 K | 1066 | 1129
333 K | 1064 | 1126
338 K | 1061 | 1123
343 K | 1058 | 1120
348 K | – | 1117
353 K | 1051 | 1114
358 K | – | 1111
363 K | – | 1108
373 K | 1037 | 1101
393 K | 1021 | 1086

NCC(=O)[O-].[K+] [potassium glycinate] + O
mass density [kg/m3], 101 kPa
Conditions | m1 = 0.99 | m1 = 1.78
293 K | 1065 | 1130
298 K | 1064 | 1128
303 K | 1062 | 1126
308 K | 1060 | 1124
313 K | 1058 | 1121
318 K | 1056 | 1119
323 K | 1053 | 1116
328 K | 1051 | 1114
333 K | 1048 | 1111
338 K | 1045 | 1108
343 K | 1042 | 1105
348 K | 1039 | 1102
353 K | 1036 | 1099
358 K | 1033 | 1096
363 K | 1030 | 1093
373 K | 1023 | 1086
393 K | 1007 | –
